Assay results from patent US20250353853A1, “FLAVIVIRUS INHIBITORS” (IRBM S.P.A., priority 2022, published 2025).
Like-named read-outs stand apart in the source and are kept apart here.

Tests used:
[1] = biological target: West Nile Virus (WNV) NS2B-NS3 protease (West Nile virus (WNV), UniProt P06935); experiment: WNV Protease Inhibition Assay; format: biochemical
From the text: WNV Protease Inhibition Assay

[2] = tested on: ZIKV replicon in Vero cells; experiment: ZIKV Replication Inhibition Assay (replicon, NanoLuc); conditions: Zika virus, Vero, 72 h, read-out: Zika Replicon EC50
[3] = 2 nM protease, 10 μM pERTKR-AMC substrate, read-out: WNV Protease IC50

West Nile Virus (WNV) NS2B-NS3 protease, sequence (P06935 1502-1679 limits assumed): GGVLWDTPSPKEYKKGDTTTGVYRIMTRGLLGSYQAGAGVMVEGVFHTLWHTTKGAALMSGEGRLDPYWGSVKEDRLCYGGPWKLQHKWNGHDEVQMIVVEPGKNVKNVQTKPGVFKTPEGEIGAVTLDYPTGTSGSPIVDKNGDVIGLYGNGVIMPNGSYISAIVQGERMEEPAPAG
West Nile Virus (WNV) NS2B-NS3 protease, sequence (P06935 1371-1501 partner limits assumed): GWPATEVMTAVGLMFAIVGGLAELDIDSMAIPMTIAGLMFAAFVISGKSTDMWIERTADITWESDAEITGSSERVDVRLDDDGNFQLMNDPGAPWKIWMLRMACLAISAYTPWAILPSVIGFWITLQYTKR

Row | SMILES | IC50 [1, 3] [nM] | EC50 [2] [nM] | IC50 [1] [nM]
1 | O=C([N-]c1c[n+](Cc2ccc(-c3ccnnc3)cn2)no1)Nc1cccc(C(F)(F)F)c1 [Example 160, (3-((5-(pyridazin-4-yl)pyridin-2-yl)methyl)-1,2,3-oxadiazol-3-ium-5-yl)((3-(trifluoromethyl)phenyl)carbamoyl)amide] | < 100 | 100 to 1000 | 
2 | Cc1noc(C)c1-c1ccc(C[n+]2cc([N-]C(=O)Nc3cccc(C(F)(F)F)n3)on2)nc1 [Example 161, (3-((5-(3,5-dimethylisoxazol-4-yl)pyridin-2-yl)methyl)-1,2,3-oxadiazol-3-ium-5-yl)((6-(trifluoromethyl)pyridin-2-yl)carbamoyl)amide] |  | 1000 to 20000 | 1000 to 20000
3 | Cc1ccnnc1-c1ccc(C[n+]2cc([N-]C(=O)Nc3cccc(C(F)(F)F)c3)on2)nc1 [Example 162, (3-((5-(4-methylpyridazin-3-yl)pyridin-2-yl)methyl)-1,2,3-oxadiazol-3-ium-5-yl)((3-(trifluoromethyl)phenyl)carbamoyl)amide] | < 100 | < 100 | 
4 | Cc1cnccc1-c1ccc(C[n+]2cc([N-]C(=O)Nc3cccc(C(F)(F)F)c3)on2)nc1 [Example 163, (3-((3′-methyl-[3,4′-bipyridin]-6-yl)methyl)-1,2,3-oxadiazol-3-ium-5-yl)((3-(trifluoromethyl)phenyl)carbamoyl)amide] |  | < 100 | 100 to 1000
5 | O=C([N-]c1c[n+](Cc2ccc(-c3ccncc3F)cn2)no1)Nc1cccc(C(F)(F)F)c1 [Example 164, (3-((3′-fluoro-[3,4′-bipyridin]-6-yl)methyl)-1,2,3-oxadiazol-3-ium-5-yl)((3-(trifluoromethyl)phenyl)carbamoyl)amide] |  | < 100 | 100 to 1000
6 | Cc1cnn(C)c1-c1ccc(C[n+]2cc([N-]C(=O)Nc3cccc(C(F)(F)F)c3)on2)nc1 [Example 165, (3-((5-(1,4-dimethyl-1H-pyrazol-5-yl)pyridin-2-yl)methyl)-1,2,3-oxadiazol-3-ium-5-yl)((3-(trifluoromethyl)phenyl)carbamoyl)amide] |  | < 100 | 100 to 1000
7 | Cc1noc(C)c1-c1ccc(C[n+]2cc([N-]C(=O)Nc3ncc(C(F)(F)F)s3)on2)nc1 [Example 166, (3-((5-(3,5-dimethylisoxazol-4-yl)pyridin-2-yl)methyl)-1,2,3-oxadiazol-3-ium-5-yl)((5-(trifluoromethyl)thiazol-2-yl)carbamoyl)amide] |  | < 100 | 100 to 1000
8 | Cc1noc(C)c1-c1cnc(C[n+]2cc([N-]C(=O)Nc3cccc(C(F)(F)F)c3)on2)nc1 [Example 167, (3-((5-(3,5-dimethylisoxazol-4-yl)pyrimidin-2-yl)methyl)-1,2,3-oxadiazol-3-ium-5-yl)((3-(trifluoromethyl)phenyl)carbamoyl)amide] |  | < 100 | 100 to 1000
9 | Cc1noc(C)c1-c1ccc(C[n+]2cc([N-]C(=O)Nc3cccc(C(F)F)c3)on2)nc1 [Example 168, ((3-(difluoromethyl)phenyl)carbamoyl)(3-((5-(3,5-dimethylisoxazol-4-yl)pyridin-2-yl)methyl)-1,2,3-oxadiazol-3-ium-5-yl)amide] |  | 100 to 1000 | 100 to 1000
10 | O=C([N-]c1c[n+](Cc2ccc(-c3c(F)cncc3F)cn2)no1)Nc1cccc(C(F)(F)F)c1 [Example 170, (3-((3′,5′-difluoro-[3,4′-bipyridin]-6-yl)methyl)-1,2,3-oxadiazol-3-ium-5-yl)((3-(trifluoromethyl)phenyl)carbamoyl)amide] |  | < 100 | 100 to 1000
11 | O=C([N-]c1c[n+](Cc2ccc(-c3cccnc3Cl)cn2)no1)Nc1cccc(C(F)(F)F)c1 [Example 172, (3-((2′-chloro-[3,3′-bipyridin]-6-yl)methyl)-1,2,3-oxadiazol-3-ium-5-yl)((3-(trifluoromethyl)phenyl)carbamoyl)amide] |  | < 100 | 100 to 1000
12 | Cc1noc(C)c1-c1ccc(C[n+]2cc([N-]C(=O)Nc3cccc(C(F)(F)F)c3)on2)nn1 [Example 173, (3-((6-(3,5-dimethylisoxazol-4-yl)pyridazin-3-yl)methyl)-1,2,3-oxadiazol-3-ium-5-yl)((3-(trifluoromethyl)phenyl)carbamoyl)amide] | < 100 | < 100 | 
13 | Cc1cnn(C)c1-c1ccc(C[n+]2cc([N-]C(=O)Nc3ccnc(C(F)(F)F)c3)on2)nc1 [Example 175, (3-((5-(1,4-dimethyl-1H-pyrazol-5-yl)pyridin-2-yl)methyl)-1,2,3-oxadiazol-3-ium-5-yl)((2-(trifluoromethyl)pyridin-4-yl)carbamoyl)amide] | < 100 | < 100 | 
14 | Cc1ncnc(C)c1-c1ccc(C[n+]2cc([N-]C(=O)Nc3ccnc(C(F)(F)F)c3)on2)nc1 [Example 176, (3-((5-(4,6-dimethylpyrimidin-5-yl)pyridin-2-yl)methyl)-1,2,3-oxadiazol-3-ium-5-yl)((2-(trifluoromethyl)pyridin-4-yl)carbamoyl)amide] | < 100 | 100 to 1000 | 
15 | O=C([N-]c1c[n+](Cc2ccc(-c3cncnc3C(F)(F)F)cn2)no1)Nc1ccnc(C(F)(F)F)c1 [Example 177, ((2-(trifluoromethyl)pyridin-4-yl)carbamoyl)(3-((5-(4-(trifluoromethyl)pyrimidin-5-yl)pyridin-2-yl)methyl)-1,2,3-oxadiazol-3-ium-5-yl)amide] | < 100 | 100 to 1000 | 
16 | Cc1cnn(C)c1-c1ccc(C[n+]2cc([N-]C(=O)Nc3cncc(C(F)(F)F)c3)on2)nc1 [Example 178, (3-((5-(1,4-dimethyl-1H-pyrazol-5-yl)pyridin-2-yl)methyl)-1,2,3-oxadiazol-3-ium-5-yl)((5-(trifluoromethyl)pyridin-3-yl)carbamoyl)amide] |  | < 100 | 100 to 1000
17 | O=C([N-]c1c[n+](Cc2ccc(-c3cncnc3Cl)cn2)no1)Nc1cccc(C(F)(F)F)c1 [Example 179, (3-((5-(4-chloropyrimidin-5-yl)pyridin-2-yl)methyl)-1,2,3-oxadiazol-3-ium-5-yl)((3-(trifluoromethyl)phenyl)carbamoyl)amide] | < 100 | 1000 to 20000 | 
18 | O=C([N-]c1c[n+](Cc2ccc(-c3c(Cl)ncnc3Cl)cn2)no1)Nc1cccc(C(F)(F)F)c1 [Example 180, (3-((5-(4,6-dichloropyrimidin-5-yl)pyridin-2-yl)methyl)-1,2,3-oxadiazol-3-ium-5-yl)((3-(trifluoromethyl)phenyl)carbamoyl)amide] | < 100 | 1000 to 20000 | 
19 | COc1cc(-c2ccc(C[n+]3cc([N-]C(=O)Nc4cccc(C(F)(F)F)c4)on3)nc2)c(OC)nn1 [Example 181, (3-((5-(3,6-dimethoxypyridazin-4-yl)pyridin-2-yl)methyl)-1,2,3-oxadiazol-3-ium-5-yl)((3-(trifluoromethyl)phenyl)carbamoyl)amide] |  | < 100 | 100 to 1000
20 | Cc1ncnc(C)c1-c1ccc(C[n+]2cc([N-]C(=O)Nc3cccc(C4CC4)c3)on2)nc1 [Example 182, ((3-cyclopropylphenyl)carbamoyl)(3-((5-(4,6-dimethylpyrimidin-5-yl)pyridin-2-yl)methyl)-1,2,3-oxadiazol-3-ium-5-yl)amide] |  | 100 to 1000 | 100 to 1000
21 | Cc1ncnc(C)c1-c1cnc(C[n+]2cc([N-]C(=O)Nc3cccc(C(F)(F)F)c3)on2)nc1 [Example 183, (3-((4′,6′-dimethyl-[5,5′-bipyrimidin]-2-yl)methyl)-1,2,3-oxadiazol-3-ium-5-yl)((3-(trifluoromethyl)phenyl)carbamoyl)amide] |  | < 100 | 100 to 1000
22 | Cc1ncnc(C)c1-c1ccc(C[n+]2cc([N-]C(=O)Nc3cccc(C(F)(F)F)c3)on2)nn1 [Example 184, (3-((6-(4,6-dimethylpyrimidin-5-yl)pyridazin-3-yl)methyl)-1,2,3-oxadiazol-3-ium-5-yl)((3-(trifluoromethyl)phenyl)carbamoyl)amide] |  | 100 to 1000 | 100 to 1000
23 | Cc1ncnc(C)c1-c1ccc(C[n+]2cc([N-]C(=O)Nc3ccnc(C(F)(F)F)c3)on2)cc1 [Example 185, (3-(4-(4,6-dimethylpyrimidin-5-yl)benzyl)-1,2,3-oxadiazol-3-ium-5-yl)((2-(trifluoromethyl)pyridin-4-yl)carbamoyl)amide] | < 100 | < 100 | 
24 | Cc1noc(C)c1-c1ccc(C[n+]2cc([N-]C(=O)Nc3ccnc(C(F)(F)F)c3)on2)cc1 [Example 186, (3-(4-(3,5-dimethylisoxazol-4-yl)benzyl)-1,2,3-oxadiazol-3-ium-5-yl)((2-(trifluoromethyl)pyridin-4-yl)carbamoyl)amide] | < 100 | < 100 | 
25 | Cc1ncnc(C)c1-c1ccc(C[n+]2cc([N-]C(=O)Nc3cncc(C(F)(F)F)c3)on2)cc1 [Example 187, (3-(4-(4,6-dimethylpyrimidin-5-yl)benzyl)-1,2,3-oxadiazol-3-ium-5-yl)((5-(trifluoromethyl)pyridin-3-yl)carbamoyl)amide] |  | 1000 to 20000 | 100 to 1000
26 | Cc1ncnc(C)c1-c1ccc([C@@H](C)[n+]2cc(NC(=O)Nc3ccnc(C(F)(F)F)c3)on2)cc1 [Example 188, (R)-(3-(1-(4-(4,6-dimethylpyrimidin-5-yl)phenyl)ethyl)-1,2,3-oxadiazol-3-ium-5-yl)((2-(trifluoromethyl)pyridin-4-yl)carbamoyl)amide] |  | < 100 | < 100
27 | Cc1noc(C)c1-c1ccc([C@@H](C)[n+]2cc([N-]C(=O)Nc3ccnc(C(F)(F)F)c3)on2)cc1 [Example 189, (R)-(3-(1-(4-(3,5-dimethylisoxazol-4-yl)phenyl)ethyl)-1,2,3-oxadiazol-3-ium-5-yl)((2-(trifluoromethyl)pyridin-4-yl)carbamoyl)amide] |  | 100 to 1000 | 100 to 1000
28 | Cc1ncnc(C)c1-c1ccc([C@H](C)[n+]2cc([N-]C(=O)Nc3ccnc(C(F)(F)F)c3)on2)cc1 [Example 190, (S)-(3-(1-(4-(4,6-dimethylpyrimidin-5-yl)phenyl)ethyl)-1,2,3-oxadiazol-3-ium-5-yl)((2-(trifluoromethyl)pyridin-4-yl)carbamoyl)amide] |  | 100 to 1000 | < 100
